Measurements published in patent US20230286973A1, “PROTEIN SECRETION INHIBITORS” (KEZAR LIFE SCIENCES, priority 2020, published 2023).
pEC50, pIC50: −log10 of the molar value.

Tests used:
[1] = Liver Microsome Stability Assay (mouse); details: mouse liver microsomes, with NADPH, 1.0 uM compound
Description: (§1) Stability of a compound was assessed in the presence of liver microsomes from various sources—mouse, rat, monkey and human liver microsomes. 1.0 uM compound, 0.4% DMSO in 0.1 M Potassium Phosphate with 1.0 mg/mL liver microsomes, were incubated at 37° C. with or without 1 mM NADPH. The samples were quenched at 0, and 30 minutes.

[2] = system: HER3-ss+4aa/Gaussia Luciferase; assay: Dox-Induced Her3-ss-Gluc Assay; type: cell-based; details: 24 hr Dox induction; 293FRT/TO cells; read-out: 24 hr Dox Inducible Her3(ss + 4)Gluc 293FRT/TO: Mean IC50
In short: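 Reporter line: Flp-In 293 T-REx, T-REx-regulated HER3-ss+4aa fused to Gaussia luciferase. Compound co-added with doxycycline after overnight plating, 37° C., 5% CO2.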

[3] = Liver Microsome Stability Assay (monkey); details: monkey liver microsomes, with NADPH, 1.0 uM compound
Description: as §1

[4] = Liver Microsome Stability Assay (rat); details: rat liver microsomes, with NADPH, 1.0 uM compound
Description: as §1

[5] = system: PD1-ss+10aa/Gaussia Luciferase; assay: Dox-Induced PD1-ss-Gluc Assay; type: cell-based; details: 24 hr Dox induction; 293FRT/TO cells; read-out: 24 hr Dox Inducible PD1ssGluc 293FRT/TO: Mean IC50
In short: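 Doxycycline-induced expression of a PD1-ss+10aa/Gaussia luciferase reporter is measured in stable Flp-In 293 T-REx cells. Compound dilutions containing doxycycline are added one day after plating and incubated at 37 °C, 5% CO2. Values for unassigned stereocentres refer to stereoisomer mixtures.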

[6] = system: IL-2-FL/Gaussia Luciferase; assay: Dox Induced IL2-FL-Gluc Assay; type: cell-based; details: for pIC50: 24 hr Dox induction, 293FRT/TO cells, read-out: 24 hr Dox Inducible IL2FLGluc 293FRT/TO: Mean IC50; for 24 hr Dox Inducible IL2FLGluc 293FRT/TO: IL2/PD1: ratio of IL2FLGluc IC50 to PD1ssGluc IC50
In short: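 Doxycycline induces an IL-2(1-153)–Gaussia luciferase fusion in a stable Flp-In 293 T-REx line. Compound exposure runs alongside induction at 37° C.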

[7] = system: multiple myeloma cell line U266B1; assay: U266 Cell Viability Assay; type: cell-based, human; details: Homo sapiens, U-266, 48 h, U266B1 cells, Celltiter-Glo
In short: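 Viability is measured as luciferase signal from CellTiter-Glo following a 48-hour incubation with compound at 37° C. under 5% CO2. Where structures lack drawn stereochemistry, values refer to stereoisomer mixtures.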

[8] = system: multiple myeloma cell line NCI-H929; assay: H929 Cell Viability Assay; type: cell-based, human; details: Homo sapiens, NCI-H929, 48 h, NCI-H929 cells, Celltiter-Glo
In short: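 Viability is scored by CellTiter-Glo luminescence following a 48-hour treatment at 37° C. Data for structures shown without stereochemistry refer to stereoisomer mixtures.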

[9] = system: TNFα-FL/Gaussia Luciferase; assay: Dox Induced TNFα-FL-Gluc Assay; type: cell-based; details: for pIC50: 24 hr Dox induction, 293FRT/TO cells, read-out: 24 hr Dox Inducible TNFaFLGluc 293FRT/TO: Mean IC50; for 24 hr Dox Inducible TNFaFLGluc 293FRT/TO: TNF/PD1: ratio of TNFaFLGluc IC50 to PD1ssGluc IC50
In short: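 Doxycycline-inducible Gaussia luciferase-tagged full-length TNFα (1-233) was expressed in stable Flp-In 293 T-REx cells. Compounds were co-added with doxycycline and incubated at 37 °C, 5% CO2.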

[10] = Liver Microsome Stability Assay (human); details: human liver microsomes, with NADPH, 1.0 uM compound
Description: as §1

Row | SMILES | Liver Microsome Stability (Multiple Species): Mouse - % Remaining after 30 min w/NADPH [1] [%] | pIC50 [2] | Liver Microsome Stability (Multiple Species): Monkey - % Remaining after 30 min w/NADPH [3] [%] | Liver Microsome Stability (Multiple Species): Rat - % Remaining after 30 min w/NADPH [4] [%] | pIC50 [5] | pIC50 [6] | pEC50 [7] | pEC50 [8] | pIC50 [9] | Liver Microsome Stability (Multiple Species): Human - % Remaining after 30 min w/NADPH [10] [%] | 24 hr Dox Inducible IL2FLGluc 293FRT/TO: IL2/PD1 [6] | 24 hr Dox Inducible TNFaFLGluc 293FRT/TO: TNF/PD1 [9]
1 | O=C(Nc1nc([C@H]2CCCN2c2ccc(OC3CS(=O)(=O)C3)cc2)cs1)c1cccn1Cc1ccnc(F)c1 [Compound A158] | 14.5 | 6.89 | 1.84 | 24.2 | 7.04 | 6.88 | < 4.60 | 5.48 | 5.98 | 8.23 | 1.4 | 11.7
2 | O=C(Nc1nc(-c2cccc(-c3ccccn3)c2)cs1)c1cccn1Cc1ccnc(F)c1 [Compound A162, 1-((2-fluoropyridin-4-yl)methyl)-N-(4-(3-(pyridin-2-yl)phenyl)thiazol-2-yl)-1H-pyrrole-2-carboxamide] | 7.13 | 5.90 | 0.25 | 8.48 | 6.12 | 5.75 | < 4.60 | < 4.60 | < 4.60 | 1.91 | 2.4 | >33.0
3 | Cc1cc(C(=O)Nc2nc([C@H]3CCCN3c3ccc(NC(=O)N(C)C)cc3)cs2)n(Cc2ccnc(F)c2)c1 [Compound A163, (R)-N-(4-(1-(4-(3,3-dimethylureido)phenyl)pyrrolidin-2-yl)thiazol-2-yl)-1-((2-fluoropyridin-4-yl)methyl)-4-methyl-1H-pyrrole-2-carboxamide] | 36.3 | 7.52 | 44.9 | 50.2 | 7.79 | 7.40 | < 4.60 | 6.15 | 6.48 | 67.5 | 2.5 | 20.3
4 | CC(=O)Nc1ccc(N2CCC[C@@H]2c2csc(NC(=O)c3cc(C)cn3Cc3ccnc(F)c3)n2)cc1 [Compound A164, (R)-N-(4-(1-(4-acetamidophenyl)pyrrolidin-2-yl)thiazol-2-yl)-1-((2-fluoropyridin-4-yl)methyl)-4-methyl-1H-pyrrole-2-carboxamide] | 18.8 | 7.76 | 32.3 | 19.4 | 8.10 | 7.72 | < 4.60 | 6.56 | 6.83 | 36.5 | 2.4 | 18.7

The next lines start with results.

Row | Liver Microsome Stability (Multiple Species): Mouse - % Remaining after 30 min w/NADPH [1] [%] | pIC50 [2] | Liver Microsome Stability (Multiple Species): Monkey - % Remaining after 30 min w/NADPH [3] [%] | Liver Microsome Stability (Multiple Species): Rat - % Remaining after 30 min w/NADPH [4] [%] | pIC50 [5] | pIC50 [6] | pEC50 [7] | pEC50 [8] | pIC50 [9] | Liver Microsome Stability (Multiple Species): Human - % Remaining after 30 min w/NADPH [10] [%] | SMILES | 24 hr Dox Inducible IL2FLGluc 293FRT/TO: IL2/PD1 [6] | 24 hr Dox Inducible TNFaFLGluc 293FRT/TO: TNF/PD1 [9]
5 | 0.84 | 7.30 | 13.2 | 2.44 | 7.37 | 7.28 | < 4.60 | 5.83 | 6.39 | 22.9 | O=C(Nc1nc([C@H]2CCCN2c2ccc(OC3CSC3)cc2)cs1)c1cccn1Cc1ccnc(F)c1 [Compound A157, (R)-1-((2-fluoropyridin-4-yl)methyl)-N-(4-(1-(4-(thietan-3-yloxy)phenyl)pyrrolidin-2-yl)thiazol-2-yl)-1H-pyrrole-2-carboxamide] | 1.2 | 9.64
6 | 36 | 7.45 | 3.91 | 19.7 | 7.55 | 7.09 | < 4.60 | 5.79 | 6.10 | 9.01 | NC(=O)N1CCC(Oc2ccc(N3CCC[C@@H]3c3csc(NC(=O)c4cccn4Cc4ccnc(F)c4)n3)cn2)CC1 [Compound A159, (R)-4-((5-(2-(2-(1-((2-fluoropyridin-4-yl)methyl)-1H-pyrrole-2-carboxamido)thiazol-4-yl)pyrrolidin-1-yl)pyridin-2-yl)oxy)piperidine-1-carboxamide] | 2.9 | 28.3
7 | 6.28 | 7.08 | 0.18 | 16.8 | 7.32 | 7.02 | < 4.60 | 5.57 | 6.16 | 0.66 | CC(=O)N1CCC(Cc2ccc(N3CCC[C@@H]3c3csc(NC(=O)c4cccn4Cc4ccnc(F)c4)n3)cc2)CC1 [Compound A160, (R)-N-(4-(1-(4-((1-acetylpiperidin-4-yl)methyl)phenyl)pyrrolidin-2-yl)thiazol-2-yl)-1-((2-fluoropyridin-4-yl)methyl)-1H-pyrrole-2-carboxamide] | 2 | 14.3
8 | 0.42 | 6.39 | 0.12 | 7.32 | 6.55 | 6.19 | < 4.60 | 4.91 | 5.40 | 1.04 | CC(=O)N1CCC(C(C)c2ccc(N3CCC[C@@H]3c3csc(NC(=O)c4cccn4Cc4ccnc(F)c4)n3)cc2)CC1 (stereo partly drawn) [Compound A161, N-(4-((2R)-1-(4-(1-(1-acetylpiperidin-4-yl)ethyl)phenyl)pyrrolidin-2-yl)thiazol-2-yl)-1-((2-fluoropyridin-4-yl)methyl)-1H-pyrrole-2-carboxamide] | 2.3 | 14.1
9 | 30.7 | 7.28 | 47.5 | 59.2 | 7.53 | 7.34 | < 4.60 | 6.06 | 6.41 | 42.1 | CC(=O)N1CCC(Oc2ccc(N3CCC[C@@H]3c3csc(NC(=O)c4cc(C)cn4Cc4ccnc(F)c4)n3)cc2)CC1 [Compound A165, (R)-N-(4-(1-(4-((1-acetylpiperidin-4-yl)oxy)phenyl)pyrrolidin-2-yl)thiazol-2-yl)-1-((2-fluoropyridin-4-yl)methyl)-4-methyl-1H-pyrrole-2-carboxamide] | 1.5 | 13
